The values that follow come from patent US8273758B2, “Substituted tricyclic derivatives” (Sanofi, priority 2008, dated 2012).

The target in data set [1] is GSK3β (Homo sapiens, UniProt P49841). The data set is described as follows: Inhibitory activity against GSK3β (33P-ATP phosphorylation of prephosphorylated GS1 peptide). The format is biochemical. As to conditions: protocol 3: 7.5 μM GS1 peptide, 10 μM ATP, 50 mM Hepes pH 7.2, one hour, room temperature. The method, then: Four different protocols can be used.
In a first protocol: 7.5 μM of prephosphorylated GS1 peptide and 10 μM ATP (containing 300,000 cpm of ^33P-ATP) were incubated in 25 mM Tris-HCl, pH 7.5, 0.6 mM DTT, 6 mM MgCl2, 0.6 mM EGTA, 0.05 mg/ml BSA buffer for 1 hour at room temperature in the presence of GSK3beta (total reaction volume: 100 microliters).
In a second protocol: 4.1 μM of prephosphorylated GS1 peptide and 42 μM ATP (containing 260,000 cpm ^33P-ATP) were incubated in 80 mM Mes-NaOH, pH 6.5, 1 mM Mg acetate, 0.5 mM EGTA, 5 mM 2-mercaptoethanol, 0.02% Tween 20, 10% glycerol buffer for 2 hours at room temperature in the presence of GSK3beta.
In a third protocol: 7.5 μM of prephosphorylated GS1 peptide and 10 μM ATP (containing 300,000 cpm of ^33P-ATP) were incubated in 50 mM Hepes, pH 7.2, 1 mM DTT, 1 mM MgCl2, 1 mM EGTA, 0.01% Tween 20 buffer for one hour at room temperature in the presence of GSK3beta (total reaction volume: 100 microliters). […]
The reaction was stopped with 100 microliters of a solution made of 25 g polyphosphoric acid (85% P2O5), 126 ml 85% H3PO4, H2O to 500 ml and then diluted to 1:100 before use. […] Incorporated ^33P radioactivity was determined by liquid scintillation spectrometry. […]

Structures are written as SMILES.

Sequence of GSK3β (P49841 whole entry): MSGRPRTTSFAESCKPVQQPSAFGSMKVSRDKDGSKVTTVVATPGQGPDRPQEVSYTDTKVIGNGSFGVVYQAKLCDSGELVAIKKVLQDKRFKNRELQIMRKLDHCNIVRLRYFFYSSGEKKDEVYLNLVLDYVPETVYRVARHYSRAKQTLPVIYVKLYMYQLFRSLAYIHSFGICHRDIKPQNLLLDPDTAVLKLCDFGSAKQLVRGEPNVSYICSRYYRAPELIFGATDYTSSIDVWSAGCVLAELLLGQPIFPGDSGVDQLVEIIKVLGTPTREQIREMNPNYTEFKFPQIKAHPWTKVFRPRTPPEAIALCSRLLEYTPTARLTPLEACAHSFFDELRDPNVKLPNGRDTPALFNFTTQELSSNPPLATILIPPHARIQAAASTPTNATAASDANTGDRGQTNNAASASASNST

Consider `O=C(CN1c2ccccc2Cn2c1nc(-c1ccncn1)cc2=O)c1ccccc1` [Compound No. 3, 9-(2-Oxo-2-phenyl-ethyl)-2-pyrimidin-4-yl-9,10-dihydro-1,4a,9-triaza-anthracen-4-one], for which the melting point – broadly, the temperature, or range, at which the solid turns liquid – is 263 to 265 °C. The midpoint of inhibition in data set [1], the IC50, lay at 6 nM.
